Measured values reported in PubChem BioAssay AID248 (DTP/NCI, 2004).
Where “and” joins values, the source holds several entries; their conditions need not be identical. Equal entries are not always repeated. Toxic doses and inconclusive results are not listed. Rule as the data show it: active = T/C of 150% or more; inactive = T/C below 125%.

System: L1210 leukemia ip in BDF1 mice, survival T/C
Experiment: NCI In Vivo Anticancer Drug Screen. Data for tumor model L1210 Leukemia (intraperitoneal) in B6D2F1 (BDF1) mice
Conditions: endpoint: mean survival time, higher = longer survival
Method in brief: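 Antitumor effect is assessed in tumor-bearing animals. Survival in the compound arm is compared with a vehicle-dosed control arm and expressed as their quotient.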

[1] = dose: 100.0 mg/kg/injection, schedule: Q01DX009 (ip), vehicle: saline with Tween-80
[2] = dose: 100.0 mg/kg/injection, schedule: Q04DX003 (ip), vehicle: saline with Tween-80
[3] = dose: 200.0 mg/kg/injection, schedule: Q04DX003 (ip), vehicle: saline with Tween-80
[4] = dose: 400.0 mg/kg/injection, schedule: Q04DX003 (ip), vehicle: saline with Tween-80
[5] = dose: 50.0 mg/kg/injection, schedule: Q01DX001 (ip), vehicle: saline
[6] = dose: 100.0 mg/kg/injection, schedule: Q01DX001 (ip), vehicle: saline
[7] = dose: 200.0 mg/kg/injection, schedule: Q01DX001 (ip), vehicle: saline
[8] = dose: 400.0 mg/kg/injection, schedule: Q01DX001 (ip), vehicle: saline

Measured: T/C

CCOC(=O)c1[nH]c(=S)[nH]c1C(=O)OCC
inactive: dose: 5.0 mg/kg/injection, schedule: Q01DX001 (ip), vehicle: saline 102 % of control | dose: 10.0 mg/kg/injection, schedule: Q01DX001 (ip), vehicle: saline 102 % of control | dose: 20.0 mg/kg/injection, schedule: Q01DX001 (ip), vehicle: saline 104 % of control | dose: 40.0 mg/kg/injection, schedule: Q01DX001 (ip), vehicle: saline 94 % of control | dose: 80.0 mg/kg/injection, schedule: Q01DX001 (ip), vehicle: saline 95 % of control

CC(CC(=O)O)NC(=O)OCc1ccccc1 (stereo not given)
inactive: dose: 100.0 mg/kg/injection, schedule: Q01DX001 (ip), vehicle: saline with Tween-80 101 % of control | [1] 100 % of control and 107 % of control | [2] 103 % of control | dose: 200.0 mg/kg/injection, schedule: Q01DX001 (ip), vehicle: saline with Tween-80 98 % of control | dose: 200.0 mg/kg/injection, schedule: Q01DX009 (ip), vehicle: saline with Tween-80 97 % of control and 90 % of control | [3] 94 % of control | dose: 400.0 mg/kg/injection, schedule: Q01DX001 (ip), vehicle: saline with Tween-80 95 % of control | dose: 400.0 mg/kg/injection, schedule: Q01DX009 (ip), vehicle: saline with Tween-80 100 % of control and 90 % of control | [4] 97 % of control

CCOC(=O)c1nc(N2CCOCC2)c2ccccc2n1
inactive: dose: 100.0 mg/kg/injection, schedule: Q04DX002 (ip), vehicle: Klucel (hydroxypropylcellulose) (HPC) 104 % of control | dose: 200.0 mg/kg/injection, schedule: Q04DX002 (ip), vehicle: Klucel (hydroxypropylcellulose) (HPC) 101 % of control | dose: 400.0 mg/kg/injection, schedule: Q04DX002 (ip), vehicle: Klucel (hydroxypropylcellulose) (HPC) 95 % of control

CCOC(=O)c1ccc(C)[n+]([O-])c1
inactive: [5] 96 % of control | [6] 98 % of control | [7] 100 % of control | [8] 93 % of control

COc1ccc(OC)c(CCc2cc(OC)ccc2OC)c1
inactive: dose: 12.5 mg/kg/injection, schedule: Q01DX009 (ip), vehicle: other 93 % of control | dose: 25.0 mg/kg/injection, schedule: Q01DX009 (ip), vehicle: other 96 % of control | dose: 50.0 mg/kg/injection, schedule: Q01DX009 (ip), vehicle: other 98 % of control

Nc1ncnc2c1ccn2C1OC(CO)C(O)C1O (stereo not given)
inactive: dose: 0.25 mg/kg/injection, schedule: Q01DX Z (ip), vehicle: carboxymethylcellulose (CMC) 101 % of control | dose: 0.5 mg/kg/injection, schedule: Q01DX001 (ip), vehicle: carboxymethylcellulose (CMC) 108 % of control | dose: 0.5 mg/kg/injection, schedule: Q01DX Z (ip), vehicle: carboxymethylcellulose (CMC) 104 % of control | dose: 0.5 mg/kg/injection, schedule: Q02DX009 (ip), vehicle: carboxymethylcellulose (CMC) 109 % of control | dose: 0.5 mg/kg/injection, schedule: Q## X003 (ip), vehicle: carboxymethylcellulose (CMC) 110 % of control | dose: 0.75 mg/kg/injection, schedule: Q01DX Z (ip), vehicle: carboxymethylcellulose (CMC) 104 % of control | dose: 1.0 mg/kg/injection, schedule: Q01DX001 (ip), vehicle: carboxymethylcellulose (CMC) 113 % of control | dose: 1.0 mg/kg/injection, schedule: Q01DX Z (ip), vehicle: carboxymethylcellulose (CMC) 106 % of control | dose: 1.0 mg/kg/injection, schedule: Q02DX009 (ip), vehicle: carboxymethylcellulose (CMC) 115 % of control | dose: 1.0 mg/kg/injection, schedule: Q## X003 (ip), vehicle: carboxymethylcellulose (CMC) 111 % of control | dose: 1.0 mg/kg/injection, schedule: Q## X005 (ip), vehicle: carboxymethylcellulose (CMC) 113 % of control | dose: 1.2 mg/kg/injection, schedule: Q01DX001 (ip), vehicle: carboxymethylcellulose (CMC) 107 % of control | dose: 1.25 mg/kg/injection, schedule: Q01DX Z (ip), vehicle: carboxymethylcellulose (CMC) 116 % of control | dose: 1.9 mg/kg/injection, schedule: Q01DX001 (ip), vehicle: carboxymethylcellulose (CMC) 119 % of control | dose: 2.0 mg/kg/injection, schedule: Q02DX009 (ip), vehicle: carboxymethylcellulose (CMC) 122 % of control | dose: 2.0 mg/kg/injection, schedule: Q## X003 (ip), vehicle: carboxymethylcellulose (CMC) 123 % of control | dose: 2.0 mg/kg/injection, schedule: Q## X005 (ip), vehicle: carboxymethylcellulose (CMC) 120 % of control | dose: 2.5 mg/kg/injection, schedule: Q01DX Z (ip), vehicle: carboxymethylcellulose (CMC) 98 % of control | dose: 4.0 mg/kg/injection, schedule: Q## X005 (ip), vehicle: carboxymethylcellulose (CMC) 102 % of control

O=C(CCCC(=O)NNC(=O)NC(=O)C(Cl)(Cl)Cl)NNC(=O)NC(=O)C(Cl)(Cl)Cl
inactive: [5] 108 % of control | [6] 96 % of control | [7] 102 % of control | [8] 102 % of control

CCOC(=O)C(C(=S)Nc1ccccc1)=S(C)C
inactive: dose: 100.0 mg/kg/injection, schedule: Q04DX002 (ip), vehicle: saline with Tween-80 87 % of control | dose: 200.0 mg/kg/injection, schedule: Q04DX002 (ip), vehicle: saline with Tween-80 87 % of control | dose: 400.0 mg/kg/injection, schedule: Q04DX002 (ip), vehicle: saline with Tween-80 91 % of control

Cn1nc2ccccc2n1
inactive: dose: 25.0 mg/kg/injection, schedule: Q01DX009 (ip), vehicle: saline with Tween-80 97 % of control | dose: 50.0 mg/kg/injection, schedule: Q01DX009 (ip), vehicle: saline with Tween-80 106 % of control | [1] 100 % of control | [2] 116 % of control

NC(c1ccccc1)c1c(O)ccc2ccccc12 (stereo not given)
inactive: dose: 100.0 mg/kg/injection, schedule: Q01DX009 (ip), vehicle: gum acacia 96 % of control | [2] 101 % of control | dose: 200.0 mg/kg/injection, schedule: Q01DX009 (ip), vehicle: gum acacia 98 % of control | [3] 93 % of control | dose: 400.0 mg/kg/injection, schedule: Q01DX009 (ip), vehicle: gum acacia 91 % of control | [4] 98 % of control
